Test results taken from US11464791B2, “Use of paricalcitol in the treatment of inflammatory anaemia” (priority 2014, dated 2022).
Read-outs that look alike come from different tables or passages of the source.

Assays:
[1] = Study B: cross-sectional comparison of paricalcitol and calcitriol (ESA dose, Hb, PTHi, ferrokinetics); type: in vivo, human; conditions: for ESA doses required: Epoetin beta; for PTHi: median (p25-p75)
Experimental: A cross-sectional study designed to assess the differences between calcitriol and paricalcitol associated with the use of ESAs, both used in the treatment of secondary hyperparathyroidism. A total of 92 patients from the Chronic Dialysis Unit of the Hospital Universitario Son Espases (HUSE) in Palma de Mallorca and from the Chronic Haemodialysis Unit of the Policlínica Miramar were included. A total of 31 patients were treated with calcitriol and a total of 61 patients were treated with paricalcitol. The ESA analysed was Epoetin beta (Neorecormon).
In order to determine whether treatment with calcitriol is capable of giving rise to the same results obtained in the treatment with paricalcitol, the groups of patients included in Study B were analysed (Table 2), one of the groups treated with paricalcitol (n=61) and the other group treated with calcitriol (n=31).

[2] = system: transferrin saturation index (TSI); experiment: Study A: evolution of the transferrin saturation index (TSI); type: in vivo, human; conditions: for average TSI: subgroup with IV Fe (n=25)
Experimental: (§1) A controlled prospective study in which the evolution of ESA doses, Fe supplement doses, evolution of Fe, of transferrin, of ferritin, of the transferrin saturation index, of the haemoglobin levels and of the non-conventional markers associated with inflammatory anaemia was determined: Hepcidin and IL-6 and analysis of the hormones associated with a improved erythropoietic response. The variability of the haemoglobin was also assessed. A total of 31 patients were included in this study. The ESAs used by the patients were Epoetin beta (Neorecormon) and CERA.
(§2) This study is a controlled, observational and analytical prospective-type study of cases and controls. The study lasted six months. In the first three months the ESA dose titrations were obtained and, in the remaining three months corresponded to the maintenance phase. The data shown in the present invention form part of the MIR-EPO Study (EudraCT: 2009-015511-40) https://www.clinicaltrialsregister.eu. The design of the MIR-EPO Study assessed patients being treated with an erythropietic agent (Epoetin-beta-Neorecormon or CERA). In said patients, the differences between the groups with and without paricalcitol were analysed, due to which the results shown in the present invention related specifically to the following groups: • Group of patients being treated with paricalcitol (paricalcitol+ESA), i.e. combined treatment, and • Group of patients being treated exclusively with an ESA.
The administration of iron supplements shall always be intravenous with the aim of maintaining a transferrin saturation index (TSI %) greater than 20%.

[3] = Study A (MIR-EPO): ESA dose requirements; type: in vivo, human
Experimental: as §1
as §2, with “The data shown in the present invention form part of the MIR-EPO Study (EudraCT: 2009-015511-40) https://www.clinicaltrialsregister.eu.” left out, “ESA. […]” for “ESA.”

[4] = paricalcitol >10 μg/dialysis, haemodialysis patients; cited from earlier work
PTH = conditions: oral paricalcitol, cited from earlier work
[5] = Study C: cross-sectional study of paricalcitol dose versus ESA dose and Hb levels; type: in vivo, human; conditions: paricalcitol 5-10 μg/week
Source text: A cross-sectional study designed to assess the distribution of the dose of paricalcitol (μg/week) associated with a greater erythropoietic response. That is, the aim is to assess the predictive capacity of the doses of paricalcitol (μg/week) over the doses of ESA (UI/week), in addition to assessing the doses of paricalcitol to predict Hb levels (g/dl) and identify the doses of paricalcitol associated with certain Hb levels in a range between 10 and 12 g/dl, which are the levels considered to be optimum.
A total of 58 patients were included in this study. The ESA analysed was Epoetin beta (Neorecormon).
In order to determine the most adequate doses required to obtain the best Hb levels and reduce the need for ESAs, a regression analysis was performed between the Hb levels, the doses of ESAs and the dose of paricalcitol in the group of patients of Study C (FIG. 2). As can be observed in said FIG. 2, the doses comprised between 5 and 10 μg were associated to a reduced need for ESAs. This trend was modified on increasing the doses of paricalcitol, due to which, according to this regression model, the administration of doses of paricalcitol higher than 10 μg/week predicts a greater use of ESAs.

plasma iron (Fe^2+) = experiment: Study A: evolution of iron (Fe^2+) levels; type: in vivo, human; conditions: for Fe^2+ levels: subgroup with IV Fe supplements (n=25)
Experimental: as §1, §2

Erythropoietin = experiment: Study A: plasma erythropoietin levels (ELISA); type: in vivo, human
Experimental: Analytical determinations: all the blood samples were analysed in the central laboratory of the HUSE, applying the methodology regularly used in clinical practice: • Hb: Haemoglobin was determined on a monthly basis prior to the dialysis session and corresponding weekday. The analysis of the samples was performed using flow cytometry (CELL-DYN Sapphire®—Abbott) at the central laboratory of the HUSE. • Klotho: Human Soluble α-Klotho Assay Kit—IBL. ELISA (Enzyme-LinkedImmunoSorbentAssay) sandwich type using two types of high-specificity anti-Human Klotho antibodies (67G3 and 91F1). Using TeTraMeltilBenzidina (TMB) as a chromogeneous agent. • Hepcidin: DGR HepcidinProhormone ELISA kit. ELISA (Enzyme-LinkedImmunoSorbentAssay) of competitive type with anti-Pro-Hepcidin (polyclonal) antibodies. • IL-6: Quantikine ELISA Human IL-6 immunoassay. ELISA (Enzyme-LinkedImmunoSorbentAssay) sandwich type using specific antibodies for mouse monoclonal and polyclonal IL-6. • Erythropoietin: Quantikine IVD ELISA Human Erythropoietin Immunoassay. […]
The non-conventional inflammatory parameters were determined in months 3 and 6 of the study, due to the fact that it is considered that the first three months of the study were dedicated to ESA dose titration and the last three months to the maintenance phase, as mentioned previously. […]

## C=C1/C(=C\C=C2/CCC[C@]3(C)[C@@H]([C@H](C)CCCC(C)(C)O)CC[C@@H]23)C[C@@H](O)C[C@@H]1O [calcitriol]
[1]
  Ferritin: 168 (111-298) ng/ml
  Hb levels: 11.10 ± 1.16 g/dL
  TSI %: 24 ± 10%
  ESA doses required: 9000 UI/week
  PTHi: 358 (230-623) pg/ml

## C=C1CC[C@H](O)C/C1=C/C=C1\CCC[C@]2(C)[C@@H]([C@H](C)CCCC(C)(C)O)CC[C@@H]12 [hidroferol, calcifediol]
[2]; 6 months
  effect over TSI: not beneficial
[2]; month 0
  TSI levels: 29±12%
[2]; month 3
  TSI levels: 33±14%
[2]; month 6
  TSI levels: 25±9%

## C[C@H](/C=C/[C@H](C)C(C)(C)O)[C@H]1CC[C@H]2/C(=C/C=C3C[C@@H](O)C[C@H](O)C3)CCC[C@]12C [paricalcitol, 19-nor-1, 25-(OH) 2-vitamin D2]
[2]; month 0
  average TSI: 25±6%
[2]; month 3
  average TSI: 24±5%
[2]; month 6
  average TSI: 30±19%
[3]; months 0-6
  evolution of ESA requirements: significant decrease
[3]; subgroup with IV Fe, month 6
  lower dose of ESA versus group treated exclusively with ESA: 24%
[4]
  calcium levels: 9.8 mg/dL
PTH; after treatment
  PTH levels: 93 pg/mL
PTH; basal level
  PTH levels: 147 pg/mL
PTH
  reduction of PTH levels with respect to the basal level: ~40%
[5]
  plasma Hb levels predicted by regression: 10-12 g/dl
Plasma iron (Fe^2+); month 0
  Iron (Fe^2+) levels: 68 ± 23 µg/dL
  Fe^2+ levels: 61 ± 16 µg/dL
Plasma iron (Fe^2+); month 3
  Iron (Fe^2+) levels: 68 ± 28 µg/dL
  Fe^2+ levels: 57 ± 14 µg/dL
Plasma iron (Fe^2+); month 6
  Iron (Fe^2+) levels: 66 ± 37 µg/dL
  Fe^2+ levels: 68 ± 37 µg/dL
Erythropoietin; month 3
  plasma erythropoietin levels: 8.6 (4.6-16.7) mUI/ml
Erythropoietin; month 6
  plasma erythropoietin levels: 20.2 (7.2-33.6) mUI/ml
[1]
  Ferritin: 494 (244-701) ng/ml
  Hb levels: 11.89 ± 0.13 g/dL
  TSI %: 30 ± 10%
  ESA doses required: approximately 4000 UI/week
  PTHi: 276 (170-449) pg/ml
